According to the NIST ThermoML archive (doi:10.1007/s10765-019-2537-x):
Values joined by “and” are separate entries in the source; they are usually repeats but may differ in a detail not shown here. Equal values may be shown once.

Conditions: Liquid, transient hot wire

CCCCCCCCCCCCCCC [pentadecane]
Conditions | thermal conductivity
318.28 K, 1420 kPa | 0.1369 W/m/K
318.31 K, 1420 kPa | 0.138 W/m/K
318.36 K, 15320 kPa | 0.1419 W/m/K
318.4 K, 1420 kPa | 0.1376 W/m/K
318.4 K, 21080 kPa | 0.1429 W/m/K
318.42 K, 21080 kPa | 0.1432 W/m/K
318.44 K, 15320 kPa | 0.1408 W/m/K and 0.1415 W/m/K
318.45 K, 21080 kPa | 0.1432 W/m/K
318.49 K, 5220 kPa | 0.1386 W/m/K
318.5 K, 10340 kPa | 0.1403 W/m/K
318.52 K, 5220 kPa | 0.1382 W/m/K
318.54 K, 10340 kPa | 0.139 W/m/K
318.56 K, 10340 kPa | 0.1394 W/m/K
318.59 K, 5220 kPa | 0.1377 W/m/K
336.96 K, 20240 kPa | 0.1393 W/m/K
337.02 K, 15360 kPa | 0.1403 W/m/K
337.04 K, 5660 kPa | 0.1338 W/m/K
337.09 K, 5660 kPa | 0.1353 W/m/K
337.1 K, 20240 kPa | 0.1399 W/m/K
337.13 K, 20240 kPa | 0.1401 W/m/K
337.14 K, 5660 kPa | 0.1361 W/m/K
337.14 K, 15360 kPa | 0.1368 W/m/K
337.18 K, 1270 kPa | 0.1332 W/m/K
337.2 K, 15360 kPa | 0.1372 W/m/K
337.22 K, 1270 kPa | 0.132 W/m/K
337.24 K, 1270 kPa | 0.1338 W/m/K
337.25 K, 10510 kPa | 0.1368 W/m/K
337.28 K, 10510 kPa | 0.1356 W/m/K
356.45 K, 5190 kPa | 0.1334 W/m/K
356.57 K, 5190 kPa | 0.1301 W/m/K
356.61 K, 5190 kPa | 0.131 W/m/K
356.68 K, 10160 kPa | 0.1329 W/m/K
356.7 K, 1040 kPa | 0.1284 W/m/K
356.71 K, 10160 kPa | 0.1307 W/m/K
356.72 K, 10160 kPa | 0.1314 W/m/K
356.74 K, 15190 kPa | 0.1321 W/m/K
356.75 K, 1040 kPa | 0.13 W/m/K
356.75 K, 20580 kPa | 0.1355 W/m/K
356.79 K, 20580 kPa | 0.1377 W/m/K
356.8 K, 15190 kPa | 0.132 W/m/K
356.83 K, 15190 kPa | 0.1341 W/m/K
356.9 K, 20580 kPa | 0.1346 W/m/K
377.3 K, 5560 kPa | 0.1275 W/m/K
377.31 K, 5560 kPa | 0.1262 W/m/K
377.33 K, 10240 kPa | 0.1296 W/m/K
377.39 K, 5560 kPa | 0.1272 W/m/K
377.4 K, 10240 kPa | 0.1302 W/m/K
377.44 K, 1420 kPa | 0.1248 W/m/K
377.46 K, 10240 kPa | 0.1284 W/m/K
377.52 K, 20480 kPa | 0.131 W/m/K
377.53 K, 1420 kPa | 0.1234 W/m/K
377.6 K, 1420 kPa | 0.1238 W/m/K
377.6 K, 20480 kPa | 0.1304 W/m/K
377.61 K, 20480 kPa | 0.1326 W/m/K
377.62 K, 15010 kPa | 0.1288 W/m/K
377.7 K, 15010 kPa | 0.1284 W/m/K
377.73 K, 15010 kPa | 0.1274 W/m/K
396.74 K, 20460 kPa | 0.1297 W/m/K
396.83 K, 20460 kPa | 0.1291 W/m/K
397.07 K, 20460 kPa | 0.1276 W/m/K
397.22 K, 10360 kPa | 0.1224 W/m/K
397.22 K, 15080 kPa | 0.1248 W/m/K
397.24 K, 10360 kPa | 0.1252 W/m/K
397.31 K, 15080 kPa | 0.1229 W/m/K
397.32 K, 15100 kPa | 0.1242 W/m/K
397.38 K, 10410 kPa | 0.1225 W/m/K
397.42 K, 1330 kPa | 0.1182 W/m/K
397.44 K, 5360 kPa | 0.1209 W/m/K
397.47 K, 1330 kPa | 0.1188 W/m/K
397.49 K, 1330 kPa | 0.1165 W/m/K
397.52 K, 5360 kPa | 0.1202 W/m/K
397.57 K, 5360 kPa | 0.1176 W/m/K
417.11 K, 5290 kPa | 0.121 W/m/K
417.13 K, 20250 kPa | 0.1228 W/m/K
417.16 K, 15230 kPa | 0.1204 W/m/K
417.19 K, 15230 kPa | 0.1227 W/m/K
417.26 K, 15230 kPa | 0.1223 W/m/K
417.27 K, 10550 kPa | 0.1227 W/m/K
417.3 K, 20250 kPa | 0.1195 W/m/K
417.36 K, 1130 kPa | 0.1134 W/m/K
417.37 K, 1130 kPa | 0.115 W/m/K
417.47 K, 10430 kPa | 0.1185 W/m/K
417.48 K, 1130 kPa | 0.1123 W/m/K
417.5 K, 10430 kPa | 0.1178 W/m/K
436.73 K, 20320 kPa | 0.1172 W/m/K
436.78 K, 20320 kPa | 0.1187 W/m/K
436.9 K, 10760 kPa | 0.1134 W/m/K
436.95 K, 5250 kPa | 0.111 W/m/K
436.98 K, 10580 kPa | 0.1145 W/m/K
437.06 K, 1280 kPa | 0.1105 W/m/K
437.06 K, 15070 kPa | 0.1143 W/m/K
437.08 K, 15070 kPa | 0.1135 W/m/K
437.1 K, 5250 kPa | 0.1106 W/m/K
437.1 K, 15070 kPa | 0.1133 W/m/K
437.11 K, 1280 kPa | 0.1079 W/m/K
437.12 K, 10470 kPa | 0.1112 W/m/K
437.14 K, 5250 kPa | 0.1103 W/m/K
437.25 K, 1280 kPa | 0.1089 W/m/K
456.48 K, 20550 kPa | 0.1176 W/m/K
456.52 K, 20460 kPa | 0.1176 W/m/K
456.66 K, 20460 kPa | 0.113 W/m/K
456.86 K, 15300 kPa | 0.1132 W/m/K
456.9 K, 15300 kPa | 0.1124 W/m/K
456.94 K, 15300 kPa | 0.1116 W/m/K
457.02 K, 1540 kPa | 0.1032 W/m/K
457.03 K, 1550 kPa | 0.1063 W/m/K
457.03 K, 10370 kPa | 0.1096 W/m/K
457.04 K, 1560 kPa | 0.1059 W/m/K
457.18 K, 5400 kPa | 0.1082 W/m/K
457.32 K, 5440 kPa | 0.1063 W/m/K
457.33 K, 10250 kPa | 0.1104 W/m/K
457.37 K, 10270 kPa | 0.1084 W/m/K
457.4 K, 5440 kPa | 0.1059 W/m/K
476.68 K, 20310 kPa | 0.114 W/m/K
476.72 K, 15160 kPa | 0.1061 W/m/K
476.9 K, 20850 kPa | 0.1106 W/m/K
476.95 K, 15160 kPa | 0.1094 W/m/K
476.97 K, 10330 kPa | 0.1092 W/m/K
477 K, 15160 kPa | 0.1082 W/m/K
477.06 K, 20970 kPa | 0.1128 W/m/K
477.24 K, 5120 kPa | 0.1033 W/m/K
477.29 K, 1080 kPa | 0.0998 W/m/K
477.29 K, 10330 kPa | 0.1023 W/m/K
477.3 K, 5120 kPa | 0.1024 W/m/K
477.3 K, 10330 kPa | 0.1044 W/m/K
477.32 K, 5120 kPa | 0.1031 W/m/K
477.33 K, 1080 kPa | 0.0988 W/m/K
477.61 K, 1080 kPa | 0.1038 W/m/K
496.62 K, 20420 kPa | 0.111 W/m/K
496.9 K, 20420 kPa | 0.1069 W/m/K
496.94 K, 10500 kPa | 0.102 W/m/K
496.95 K, 5430 kPa | 0.0983 W/m/K
496.95 K, 20420 kPa | 0.1039 W/m/K
496.96 K, 15010 kPa | 0.1033 W/m/K
496.97 K, 15010 kPa | 0.1021 W/m/K and 0.105 W/m/K
497 K, 10530 kPa | 0.1008 W/m/K
497.04 K, 10470 kPa | 0.1024 W/m/K
497.1 K, 5410 kPa | 0.0981 W/m/K
497.15 K, 5430 kPa | 0.0965 W/m/K
516.81 K, 15180 kPa | 0.104 W/m/K
516.84 K, 20110 kPa | 0.0998 W/m/K
516.89 K, 20110 kPa | 0.1031 W/m/K
517 K, 15180 kPa | 0.0984 W/m/K
517 K, 20100 kPa | 0.1021 W/m/K
517.03 K, 15180 kPa | 0.099 W/m/K
517.12 K, 5490 kPa | 0.0948 W/m/K
517.19 K, 5490 kPa | 0.094 W/m/K
517.2 K, 5490 kPa | 0.0941 W/m/K
536.59 K, 20650 kPa | 0.1039 W/m/K and 0.1025 W/m/K
536.85 K, 20650 kPa | 0.0995 W/m/K
536.99 K, 15650 kPa | 0.1001 W/m/K
537.13 K, 15650 kPa | 0.0975 W/m/K
537.14 K, 10120 kPa | 0.0972 W/m/K
537.39 K, 5310 kPa | 0.0872 W/m/K
556.55 K, 5420 kPa | 0.0851 W/m/K
556.82 K, 15300 kPa | 0.1002 W/m/K
556.9 K, 20180 kPa | 0.0999 W/m/K
556.93 K, 10380 kPa | 0.0967 W/m/K
557 K, 20180 kPa | 0.0986 W/m/K
557.05 K, 10380 kPa | 0.0943 W/m/K
557.06 K, 20180 kPa | 0.098 W/m/K
557.12 K, 15300 kPa | 0.0941 W/m/K
557.14 K, 15300 kPa | 0.0924 W/m/K
576.55 K, 20450 kPa | 0.0998 W/m/K
576.95 K, 20450 kPa | 0.0961 W/m/K
577.01 K, 10240 kPa | 0.0944 W/m/K
577.06 K, 20450 kPa | 0.0928 W/m/K
577.08 K, 15190 kPa | 0.0923 W/m/K
577.1 K, 5140 kPa | 0.0897 W/m/K
577.12 K, 10300 kPa | 0.0889 W/m/K
577.12 K, 15190 kPa | 0.0924 W/m/K
577.15 K, 15190 kPa | 0.09 W/m/K
577.16 K, 10320 kPa | 0.0907 W/m/K
577.17 K, 5140 kPa | 0.0888 W/m/K
577.25 K, 5140 kPa | 0.0876 W/m/K
